According to patent US20230103142A1, “SMALL MOLECULE REGULATORS OF NOTCH1 AND USES THEREOF” (THE PENN STATE RESEARCH FOUNDATION, priority 2020, published 2023):
pIC50: −log10 of the molar value. Read-outs that look alike come from different tables or passages of the source.

What was measured:
HCT116 cells [1] = conditions: HCT116, 24 h
Experimental: (§1) Flow cytometry analysis: 0.3×10^6 cells seeded in a 6 well plate and were cultured until 70-80% confluence was achieved. […] To quantify apoptosis, flow cytometry analysis of the Annexin V-FITC against Propidium Iodide (PI) assay was performed following a previously described protocol. The Apoptosis detection kit was purchased from BD Pharminogen™, San Diego, Calif., USA. All experiments were repeated in triplicate to achieve statistical relevance.

Notch1/HCT116 clone C4 [2] = conditions: C4, IC50 concentration
Experimental: as §1

Notch1/HCT116 clone C5 [3] = conditions: C5, IC50 concentration
Experimental: as §1

SW-620 cells [4] = conditions: SW-620, 24 h
Experimental: as §1

pCMV/HCT116 cells [5] = conditions: pCMV/HCT116, IC50 concentration
Experimental: as §1

HCT116 cells [6] = conditions: HCT116, 24 h; remark: listed apart in the source
Experimental: (§2) Cell invasion and migration assays: The invasive capability of pCMV/HCT116 and Notch1/HCT116 was evaluated in Boyden chambers, as described in earlier studies. HCT 116, SW-620, pCMV/HCT116, and Notch1/HCT116 cells were analyzed for migration capability with protocols already described in an earlier study. All experiments were performed in triplicate to achieve statistical relevance.

Notch1/HCT116 clone C4 [7] = conditions: C4, IC50 dose, 24 h
Experimental: as §2

Notch1/HCT116 clone C5 [8] = conditions: C5, IC50 dose, 24 h
Experimental: as §2

SW620 cells = conditions: SW620, 24 h
Experimental: as §2

pCMV/HCT116 cells [9] = conditions: pCMV/HCT116, IC50 dose, 24 h
Experimental: as §2

ubiquitin in ALDH+ cells = assay: ubiquitin expression; assay type: cell-based
Excerpt: Commercially available positive and negative controls were used for these experiments.

HCT116 cells [10] = conditions: read-out: IC50 cell viability
Experimental: (§3) Six biological replicates used for MTT assays and it was repeated twice for each experiment. […] The anchorage-independent growth assay was performed and repeated in triplicate.

SW-620 cells [11] = conditions: read-out: IC50 cell viability
Experimental: as §3

pCMV/HCT116 cells [12] = assay: colony forming assay
Experimental: as §3

Notch1/HCT116 clone C5 [13] = assay: colony forming assay
Experimental: as §3

Notch2 in HCT116 cells = assay: immunoblot with Notch2 antibody; conditions: HCT116, IC50 concentration, 12 h and 24 h
Excerpt: (§4) Data are presented as the mean±standard deviation (SEM/SD) of three independent experiments. The Student's t-test was used to calculate the statistical significance between the vehicle and treatment at each concentration. *p<0.05 and **p<0.01.

Notch3 in HCT116 cells = assay: immunoblot with Notch3 antibody; conditions: HCT116, IC50 concentration, 12 h and 24 h
Excerpt: as §4

Compound: CC1=C(CO)C(=O)O[C@@H]([C@@H](C)[C@H]2CC[C@H]3[C@@H]4C[C@H]5O[C@]56[C@@H](OC(=O)c5ccccn5)C=CC(=O)[C@]6(C)[C@H]4CC[C@]23C)C1 [ASR490, Pyridine-2-carboxylic acid {17-[1-(5-hydroxymethyl-4-methyl-6-oxo-3,6-dihydro-2H-pyran-2-yl)-ethyl]-10,13-dimethyl-1-oxo, 4,6,7,8,9,10,11,12,13,14,15,16,17-tetradecahydro-20-oxacyclopropa[5,6]cyclopenta[a]phenanthren-4-yl}ester]
- induction of apoptosis (HCT116 cells [1]): 19.9%
- induction of apoptosis (Notch1/HCT116 clone C4 [2]): 13.4%
- induction of apoptosis (Notch1/HCT116 clone C5 [3]): 13.2%
- induction of apoptosis (SW-620 cells [4]): 9.57%
- induction of apoptosis (pCMV/HCT116 cells [5]): 25.8%
- inhibition of migratory capability (HCT116 cells [6]): 25.18%
- decline in invasive capacity (Notch1/HCT116 clone C4 [7]): 60.75%
- decline in invasive capacity (Notch1/HCT116 clone C5 [8]): 65.5%
- inhibition of migratory capability (SW620 cells): 32.36%
- decline in invasive capacity (pCMV/HCT116 cells [9]): 40%
- decline in migratory potential (pCMV/HCT116 cells [9]): 25.11%
- ubiquitin expression (ubiquitin in ALDH+ cells): time dependent increased ubiquitin expression
- pIC50 (HCT116 cells [10]; HCT 116, 24-h): 6.12
- pIC50 (HCT116 cells [10]; HCT 116, 48-h): 6.22
- pIC50 (SW-620 cells [11]; SW-620, 24-h): 5.92
- pIC50 (SW-620 cells [11]; SW-620, 48-h): 6.07
- reduction of colony forming ability (pCMV/HCT116 cells [12]): 22.3%
- reduction of colony forming ability (Notch1/HCT116 clone C5 [13]): 26.66%
- Notch2 expression (Notch2 in HCT116 cells): no change
- Notch3 expression (Notch3 in HCT116 cells): no change
